Test results as given in US8129371B2, “Thienopyrimidine and pyrazolopyrimidine compounds and their use as mTOR kinase and PI3 kinase inhibitors” (Wyeth LLC, priority 2007, dated 2012).
Read-outs that look alike come from different tables or passages of the source.

Assays:
prostate line LNCap = assay: In vitro cell culture growth assay (MTS), LNCap; assay type: cell-based; conditions: Homo sapiens, LNCaP, 72 h, LNCap cells, three days after drug treatment
Experimental: (§1) Human tumor cell lines used include prostate lines LNCap and PC3MM2, breast lines MDA468, MCF7, renal line HTB44 (A498), colon line HCT116, and ovarian line OVCAR3. Cells were plated in 96-well culture plates. One day following plating, the inhibitors were added to cells. Three days after drug treatment, viable cell densities were determined by metabolic conversion (by viable cells) of the dye MTS, a well-established cell proliferation assay. The assays were performed using an assay kit purchased from Promega Corp. (Madison, Wis.) following the protocol supplied with the kit. The MTS assay results were read in a 96-well plate reader by measuring absorbance at 490 nm. The effect of each treatment was calculated as percent of control growth relative to the vehicle-treated cells grown in the same culture plate.

Human mTOR (FLAG-TOR) = biological target: T1, Human mTOR (FLAG-TOR) (Homo sapiens, UniProt P42345); assay: Human mTOR kinase assay with purified enzyme, DELFIA format; assay type: biochemical
T1 construct: FLAG
Experimental: Enzymes are first diluted in kinase assay buffer (10 mM HEPES (pH 7.4), 50 mM NaCl, 50 mM β-glycerophosphate, 10 mM MnCl2, 0.5 mM DTT, 0.25 mM microcystin LR, and 100 mg/mL BSA). To each well, 12 μL of the diluted enzyme is mixed briefly with 0.5 μL test inhibitor or control vehicle dimethylsulfoxide (DMSO). […] The reaction plate is incubated for 2 hours (linear at 1-6 hours) at room temperature with gentle shaking and then terminated by adding 25 μL Stop buffer (20 mM HEPES (pH 7.4), 20 mM EDTA, 20 mM EGTA). […] The DELFIA Assay buffer and Enhancement solution can be purchased from PerkinElmer. 45 μL of the terminated kinase reaction mixture is transferred to a MaxiSorp plate (Nunc) containing 55 μL PBS. The His6-S6K is allowed to attach for 2 hours after which the wells are aspirated and washed once with PBS. 100 μL of DELFIA Assay buffer with 40 ng/mL Eu—P(T389)-S6K antibody is added. The antibody binding is continued for 1 hour with gentle agitation. The wells are then aspirated and washed 4 times with PBS containing 0.05% Tween-20 (PBST). 100 μL of DELFIA Enhancement solution is added to each well and the plates are read in a PerkinElmer Victor model plate reader. Data obtained is used to calculate enzymatic activity and enzyme inhibition by potential inhibitors.

PI3K [1] = biological target: T2, PI3K (Homo sapiens, UniProt P42336); assay: Fluorescence polarization assay for PI3K; assay type: biochemical; conditions: read-out: PI3 Kinase α IC50
T2 construct: PI3 Kinase α IC50; other: PI3 Kinase α; other: PI3 Kinase α isoform, fluorescence polarization
Experimental: (§2) This assay is used to determine the IC50 of compounds of the present invention as it identifies inhibitors of PI3 kinase by measuring inhibition.
(§3) The assay is run by placing 5 μL of diluted enzyme per well, then 5 μL of diluted compound (or 9.5 μL enzyme then 0.5 μL compound in DMSO) is added and mixed. Then, 10 μL substrate is added to start the reaction. The samples are incubated 30-60 minutes, then the reaction is stopped by adding 20 μL stop/detector mix. PI3K is diluted with reaction buffer (e.g., 5 μL or 7.5 μL PI3K into 620 μL reaction buffer), and 5 μL of diluted enzyme is used per well. 5 μL reaction buffer or drug diluted in buffer (e.g., 4 μL/100 so final DMSO is 1% in reaction) is added to each. Pipetting up and down mixes the samples. Alternatively, the enzyme can be diluted to 1215 μL. In this case 9.8 μL is added per well and 0.2 μL compound is added in DMSO. To prepare 1 mL of substrate solution, 955 μL reaction buffer, 40 μL PIP2, and 2.5 μL ATP are mixed. 10 μL of substrate is added to each well to start the reaction.
(§4) Stop/detector mix is prepared by mixing 4 μL Red detector and 1.6 μL or 2.0 μL GST-GRP with 1 mL Stop buffer, which results in 10 nM probe and 70 nM GST-GRP). 20 μL of the stop/detector mix is added to each well to stop the reaction. The plates are read after 30-90 minutes keeping the red probe solutions dark. For the zero time point, stop/detector mix is added to the enzyme just before adding substrate. For an extra control, stop/detector mix is added to buffer (no enzyme) and substrate or to just buffer (no substrate). […] Plates are read on machines with filters for Tamra. The units are mP with no enzyme controls reading app 190-220 mP units. Fully active enzyme reduces fluorescence polarization down to 70-100 mP after 30 minutes.

PI3K [2] = biological target: T3, PI3K (Homo sapiens, UniProt P48736); assay: Fluorescence polarization assay for PI3K; assay type: biochemical; conditions: read-out: PI3 Kinase γ IC50
T3 construct: PI3 Kinase γ IC50; other: PI3 Kinase γ; other: PI3 Kinase γ isoform, fluorescence polarization
Experimental: as §2, §3, §4

breast line MDA468 = assay: In vitro cell culture growth assay (MTS), MDA468; assay type: cell-based; conditions: Homo sapiens, 72 h, MDA468 cells, three days after drug treatment
Experimental: as §1

[3] = purified human mTOR enzyme, DELFIA format
[4] = PI3 Kinase α isoform, fluorescence polarization
[5] = PI3 Kinase γ isoform, fluorescence polarization

T2 sequence (P42336 whole entry, canonical isoform): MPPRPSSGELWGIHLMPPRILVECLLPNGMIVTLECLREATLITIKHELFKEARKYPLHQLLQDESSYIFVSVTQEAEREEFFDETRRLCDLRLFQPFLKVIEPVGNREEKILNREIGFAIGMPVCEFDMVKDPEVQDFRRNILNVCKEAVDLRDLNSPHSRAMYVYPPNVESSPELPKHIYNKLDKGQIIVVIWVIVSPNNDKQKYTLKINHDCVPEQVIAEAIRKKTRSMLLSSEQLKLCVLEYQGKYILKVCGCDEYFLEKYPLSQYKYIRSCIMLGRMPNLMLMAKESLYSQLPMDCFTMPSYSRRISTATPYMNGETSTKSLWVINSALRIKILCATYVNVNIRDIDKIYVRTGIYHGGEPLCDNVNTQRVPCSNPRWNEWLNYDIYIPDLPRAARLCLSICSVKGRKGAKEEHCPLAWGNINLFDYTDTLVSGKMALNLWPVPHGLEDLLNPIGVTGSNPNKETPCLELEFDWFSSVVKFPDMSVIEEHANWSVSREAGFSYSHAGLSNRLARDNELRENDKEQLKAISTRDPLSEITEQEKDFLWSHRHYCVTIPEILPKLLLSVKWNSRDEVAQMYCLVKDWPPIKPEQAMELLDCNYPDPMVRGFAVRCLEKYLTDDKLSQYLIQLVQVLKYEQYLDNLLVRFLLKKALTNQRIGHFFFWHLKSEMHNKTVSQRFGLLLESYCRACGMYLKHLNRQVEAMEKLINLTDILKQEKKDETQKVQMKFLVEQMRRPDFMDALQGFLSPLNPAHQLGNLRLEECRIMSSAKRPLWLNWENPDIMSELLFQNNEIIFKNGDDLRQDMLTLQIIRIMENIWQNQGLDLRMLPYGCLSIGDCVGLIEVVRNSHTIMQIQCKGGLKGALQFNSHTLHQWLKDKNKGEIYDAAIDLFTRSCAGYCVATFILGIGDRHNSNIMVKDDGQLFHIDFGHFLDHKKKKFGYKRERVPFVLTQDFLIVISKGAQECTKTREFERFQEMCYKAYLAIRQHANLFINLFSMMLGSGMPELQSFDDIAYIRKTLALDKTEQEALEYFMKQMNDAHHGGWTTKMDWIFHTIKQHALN
T3 sequence (P48736 whole entry, canonical isoform): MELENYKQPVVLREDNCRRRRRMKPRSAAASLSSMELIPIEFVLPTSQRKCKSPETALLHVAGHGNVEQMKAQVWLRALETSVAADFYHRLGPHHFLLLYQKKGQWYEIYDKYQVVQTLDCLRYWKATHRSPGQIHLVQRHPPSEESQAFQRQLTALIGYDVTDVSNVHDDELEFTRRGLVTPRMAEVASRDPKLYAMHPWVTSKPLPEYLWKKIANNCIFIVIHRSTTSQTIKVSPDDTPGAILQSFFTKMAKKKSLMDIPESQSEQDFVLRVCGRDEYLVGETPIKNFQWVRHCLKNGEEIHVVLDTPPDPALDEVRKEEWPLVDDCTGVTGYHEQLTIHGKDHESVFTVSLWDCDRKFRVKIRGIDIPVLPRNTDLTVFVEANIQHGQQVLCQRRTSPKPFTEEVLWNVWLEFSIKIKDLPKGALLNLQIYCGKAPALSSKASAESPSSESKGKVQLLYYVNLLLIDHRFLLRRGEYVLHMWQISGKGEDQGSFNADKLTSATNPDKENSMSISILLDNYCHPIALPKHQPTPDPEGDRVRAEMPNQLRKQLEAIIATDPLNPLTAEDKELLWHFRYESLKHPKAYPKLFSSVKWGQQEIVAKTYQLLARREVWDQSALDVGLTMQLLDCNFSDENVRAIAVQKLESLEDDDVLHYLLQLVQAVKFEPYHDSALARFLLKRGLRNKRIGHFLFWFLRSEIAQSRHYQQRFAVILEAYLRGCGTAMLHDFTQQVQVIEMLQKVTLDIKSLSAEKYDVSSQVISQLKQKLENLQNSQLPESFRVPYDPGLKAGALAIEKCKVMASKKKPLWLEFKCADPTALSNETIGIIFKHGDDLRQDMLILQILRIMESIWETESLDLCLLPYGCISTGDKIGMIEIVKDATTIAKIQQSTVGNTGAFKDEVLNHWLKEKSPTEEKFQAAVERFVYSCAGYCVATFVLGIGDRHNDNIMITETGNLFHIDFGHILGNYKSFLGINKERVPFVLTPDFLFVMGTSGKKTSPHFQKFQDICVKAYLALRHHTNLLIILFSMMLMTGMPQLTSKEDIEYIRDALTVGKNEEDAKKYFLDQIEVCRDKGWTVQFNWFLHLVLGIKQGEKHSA

IC50 (prostate line LNCap) [nM]	IC50 (Human mTOR (FLAG-TOR)) [nM]	IC50 (PI3K [1]; PI3 Kinase α) [nM]	IC50 (PI3K [2]; PI3 Kinase γ) [nM]	IC50 (Human mTOR (FLAG-TOR); [3]) [nM]	IC50 (PI3K [1]; [4]) [nM]	IC50 (PI3K [2]; [5]) [nM]	SMILES	IC50 (breast line MDA468) [nM]
1200	46	4630	> 10000				CC(C)OC(=O)N1CCC(n2ncc3c(N4CC5CCC(C4)O5)nc(-c4ccc(N)cc4)nc32)CC1 [Example 65, isopropyl 4-[6-(4-aminophenyl)-4-(8-oxa-3-azabicyclo[3.2.1]oct-3-yl)-1H-pyrazolo[3,4-d]pyrimidin-1-yl]piperidine-1-carboxylate]	7000
130				0.985	2150	6510	CCNC(=O)Nc1ccc(-c2nc(N3CC4CCC(C3)O4)c3cnn(C4CCC(N5CCN(C)CC5)CC4)c3n2)cc1 (centres unmarked) [Example 370, 1-ethyl-3-(4-{1-[4-(4-methylpiperazin-1-yl)cyclohexyl]-4-(8-oxa-3-azabicyclo[3.2.1]oct-3-yl)-1H-pyrazolo[3,4-d]pyrimidin-6-yl}phenyl)urea]	400
7500	93	3980	9000				CCn1ncc2c(N3CC4CCC(C3)O4)nc(-c3ccc(NC(=O)NCC(=O)N4CCN(C)CC4)cc3)nc21 [Example 276, 1-{4-[1-ethyl-4-(8-oxa-3-azabicyclo[3.2.1]oct-3-yl)-1H-pyrazolo[3,4-d]pyrimidin-6-yl]phenyl}-3-[2-(4-methylpiperazin-1-yl)-2-oxoethyl]urea]	30000
2				0.86	3840	> 10000	COC1CCC(n2ncc3c(N4CC5CCC(C4)O5)nc(-c4ccc(NC(=O)OCCO)cc4)nc32)CC1 (centres unmarked) [Example 311, 2-hydroxyethyl {4-[1-(4-methoxycyclohexyl)-4-(8-oxa-3-azabicyclo[3.2.1]oct-3-yl)-1H-pyrazolo[3,4-d]pyrimidin-6-yl]phenyl}carbamate]	120
< 1	0.105	23	524				CCn1ncc2c(N3CC4CCC(C3)O4)nc(-c3ccc(NC(=O)Nc4ccc(C(N)=O)cc4)cc3)nc21 [Example 285, 4-[({4-[1-ethyl-4-(8-oxa-3-azabicyclo[3.2.1]oct-3-yl)-1H-pyrazolo[3,4-d]pyrimidin-6-yl]phenyl}carbamoyl)amino]benzamide]	1
< 27	0.38	3750	> 10000				CCNC(=O)Nc1ccc(-c2nc(N3CC4CCC(C3)O4)c3cnn(CC(F)(F)F)c3n2)cc1 [Example 3, 1-ethyl-3-{4-[4-(8-oxa-3-azabicyclo[3.2.1]oct-3-yl)-1-(2,2,2-trifluoroethyl)-1H-pyrazolo[3,4-d]pyrimidin-6-yl]phenyl}urea]	< 27
220				0.385	217	1120	CN1CCN(C2CCC(n3ncc4c(N5CC6CCC(C5)O6)nc(-c5ccc(NC(=O)Nc6ccccc6)cc5)nc43)CC2)CC1 (centres unmarked) [Example 373, 1-(4-{1-[4-(4-methylpiperazin-1-yl)cyclohexyl]-4-(8-oxa-3-azabicyclo[3.2.1]oct-3-yl)-1H-pyrazolo[3,4-d]pyrimidin-6-yl}phenyl)-3-phenylurea]	200
220				1.6	3140	11900	CN1CCN(C2CCC(n3ncc4c(N5CC6CCC(C5)O6)nc(-c5ccc(NC(=O)OCCO)cc5)nc43)CC2)CC1 (centres unmarked) [Example 369, 2-hydroxyethyl (4-{1-[4-(4-methylpiperazin-1-yl)cyclohexyl]-4-(8-oxa-3-azabicyclo[3.2.1]oct-3-yl)-1H-pyrazolo[3,4-d]pyrimidin-6-yl}phenyl)carbamate]	750
23	0.52		> 10000				COC(=O)N1CCC(n2ncc3c(N4CC5CCC(C4)O5)nc(-c4ccc(NC(=O)NC5CC5)cc4)nc32)CC1 [Example 12, methyl 4-[6-{4-[(cyclopropylcarbamoyl)amino]phenyl}-4-(8-oxa-3-azabicyclo[3.2.1]oct-3-yl)-1H-pyrazolo[3,4-d]pyrimidin-1-yl]piperidine-1-carboxylate]	300
90	0.98	1420	> 10000				CC(C)(C)n1ncc2c(N3CC4CCC(C3)O4)nc(-c3ccc(NC(=O)OCCO)cc3)nc21 [Example 98]	620
1	0.405	199	3800				CCn1ncc2c(N3CC4CCC(C3)O4)nc(-c3ccc(NC(=O)Nc4ccc(OC)cc4)cc3)nc21 [Example 187, 1-{4-[1-ethyl-4-(8-oxa-3-azabicyclo[3.2.1]oct-3-yl)-1H-pyrazolo[3,4-d]pyrimidin-6-yl]phenyl}-3-(4-methoxyphenyl)urea]	19
1000				57			Nc1ccc(-c2nc(N3CC4CCC(C3)O4)c3cnn(CC(F)(F)F)c3n2)cc1 [Example 374, 4-[4-(8-oxa-3-azabicyclo[3.2.1]oct-3-yl)-1-(2,2,2-trifluoroethyl)-1H-pyrazolo[3,4-d]pyrimidin-6-yl]aniline]	5500
				19.5	322	5720	CNC(=O)Nc1ccc(-c2nc(N3CC4CCC(C3)O4)c3sc(CN4CCN(C)CC4)cc3n2)cc1 [Example 423, 1-methyl-3-(4-{6-[(4-methylpiperazin-1-yl)methyl]-4-(8-oxa-3-azabicyclo[3.2.1]oct-3-yl)thieno[3,2-d]pyrimidin-2-yl}phenyl)urea]	1000

SMILES	IC50 (prostate line LNCap) [nM]	IC50 (Human mTOR (FLAG-TOR)) [nM]	IC50 (PI3K [1]; PI3 Kinase α) [nM]	IC50 (PI3K [2]; PI3 Kinase γ) [nM]	IC50 (Human mTOR (FLAG-TOR); [3]) [nM]	IC50 (PI3K [1]; [4]) [nM]	IC50 (PI3K [2]; [5]) [nM]	IC50 (breast line MDA468) [nM]
O=C(Nc1ccc(-c2nc(N3C4CCC3COC4)c3cnn(CC(F)(F)F)c3n2)cc1)Nc1ccc(N2CCOCC2)cc1 [Example 273, 1-(4-morpholin-4-ylphenyl)-3-{4-[4-(3-oxa-8-azabicyclo[3.2.1]oct-8-yl)-1-(2,2,2-trifluoroethyl)-1H-pyrazolo[3,4-d]pyrimidin-6-yl]phenyl}urea]	1	0.24	618	> 10000				10
O=C(Nc1ccc(-c2nc(N3C4CCC3COC4)c3cnn(CC(F)(F)F)c3n2)cc1)NC1CC1 [Example 271, 1-cyclopropyl-3-{4-[4-(3-oxa-8-azabicyclo[3.2.1]oct-8-yl)-1-(2,2,2-trifluoroethyl)-1H-pyrazolo[3,4-d]pyrimidin-6-yl]phenyl}urea]	7	0.355	3680	9000				80
CNC(=O)Nc1ccc(-c2nc(N3C4COCC3C(O)C4)c3cnn(CC(F)(F)F)c3n2)cc1 (centres unmarked) [Example 390, 1-{4-[4-(6-hydroxy-3-oxa-8-azabicyclo[3.2.1]oct-8-yl)-1-(2,2,2-trifluoroethyl)-1H-pyrazolo[3,4-d]pyrimidin-6-yl]phenyl}-3-methylurea]	12000				540			10000
